# Results: patent US12162858B2, “Quinoline derivatives as inhibitors of AXL/MER RTK and CSF1R” (QURIENT CO., LTD., priority 2018, dated 2024)
# Where two headings read alike, the source gives them in different places.
# Experiments:
# CSF1R [1] = biological target: T1, CSF1R (Homo sapiens, UniProt P07333); test: Cellular CSF1R inhibition ELISA (p-CSF1R, M-CSF-induced) using THP-1 cells; format: cell-based; design: THP-1 cells act as a model for human monocytes; endogenous in cells; host or cells: THP-1
# From the text: The normal proto-oncogene c-fms encodes the macrophage growth factor (M-CSF, also known as CSF1) receptor involved in growth, survival, and differentiation along the monocyte-macrophage lineage. THP-1 cells act as a model for human monocytes. It confirms that an increased phosphorylation of CSF1R (p-CSF1R) can be observed, when induced by CSF1R ligand, CSF1.
# The THP-1 cells should be maintained from 5×10^5 to 1×10^6 cells/ml in the cell culture flask. After centrifugation, the supernatant is aspirated. The cell pellet is re-suspended with pre-warmed growth medium (RPMI1640, 10% FBS, 0.05 mM 2-Mercaptoethanol) and cells are separated by pipetting 6 times up and down with a 10 ml serological pipette. The cell suspension has to be diluted to a final concentration of 2×10^5 cells per 80 μl with pre-warmed growth medium. 80 μl of cell suspension is added to all wells of plates. Cell-plates are incubated at 37° C./5% CO2. Dissolve compound in 100% DMSO to make 10 mM stock solutions (Aliquots stored in the Nitrogen Cabinet). Dilute 10 mM compounds solutions for 2-fold in 100% DMSO to get 5 mM solutions (10 μl+10 μl DMSO), and then make a 3-fold serial dilution (10 μl+20 μl DMSO) for 10 doses. For reference compounds: Dilute 10 mM compounds solutions for 20-fold in 100% DMSO to get 0.5 mM solutions (2 μl+38 μl DMSO), and then make a 3-fold serial dilution (10 μl+20 μl DMSO) for 10 doses. Transfer 2 μl diluted compounds to 198 μl medium to get solution of 50 μM concentration at top point for compounds and 5 μM for reference compounds. Then transfer 20 μl cpd solution into assay plate (Duplicate wells). The plate is incubated at 37° C./5% CO2 for 24 h. The final concentration of DMSO in all wells is […]. Reconstitute human M-CSF at 50 μg/ml in sterile water. (Aliquots stored in −80° C.). 1:1000 dilute human M-CSF by fresh medium to 50 ng/ml. After 24 h compounds treatment, transfer 25 μl diluted human M-CSF (50 ng/ml) to cell plate according to the plate map. The final concentration of human M-CSF in all wells is 10 ng/ml.
# The plates is incubated at 37° C./5% CO2 for 5 min. In the beginning the appropriate amount of lysis buffer complete (100 μL/well) is prepared and stored on ice. After 5 min human M-CSF stimulation, wash plates once with 300 μL ice cold PBS. Then 100 μl lysis buffer is added to each well. The plate is shacked for 40 min at 4° C. Plates can now be stored at −20° C. After equilibrate the micro-well strips at room temperature, break off the required number of micro-wells. Place the micro-wells in the strip holder. Unused micro-wells must be resealed and stored at 4° C. immediately. Add 90 μl of cell lysate to the appropriate well. Seal with tape and press firmly onto top of micro-wells. Incubate the plate for 2 h at 37° C. Gently remove the tape and wash wells 4 times with 1× Wash Buffer, 200 μl each time for each well. Add 100 μl of reconstituted Detection Antibody (green color) to each well. Seal with tape and incubate the plate at 37° C. for 1 h. Repeat wash procedure. Add 100 μl of reconstituted HRP-Linked secondary antibody to each well. Seal with tape and incubate the plate for 30 min at 37° C. Repeat wash procedure. Add 100 μl of TMB Substrate to each well. Seal with tape and incubate the plate for 10 min at 37° C. or 30 min at 25° C. Calculations and Formulas: The following calculations and formulas are used for data analysis using XL Fit software: The curve fitting was made using the Sigmoidal Dose-Response Model (Fit model, 205).
# CSF1R [2] = biological target: T1, CSF1R; test: KINOMEscan competition binding assay for CSF1R; design: DNA tag for qPCR (not a peptide); host or cells: E. coli/T7 phage or HEK-293; settings: for Kd: read-out: CSF1R kinase binding activity (Kd)
# Procedure: KINOMEscan™ is based on a competition binding assay that quantitatively measures the ability of a compound to compete with an immobilized, active-site directed ligand. The assay is performed by combining three components: DNA-tagged kinase; immobilized ligand; and a test compound. The ability of the test compound to compete with the immobilized ligand is measured via quantitative PCR of the DNA tag.
# E. coli were grown to log-phase and infected with T7 phage and incubated with shaking at 32° C. until lysis. The lysates were centrifuged and filtered to remove cell debris. The remaining kinases were produced in HEK-293 cells and subsequently tagged with DNA for qPCR detection. Streptavidin-coated magnetic beads were treated with biotinylated small molecule ligands for 30 minutes at room temperature to generate affinity resins for kinase assays. The liganded beads were blocked with excess biotin and washed with blocking buffer (SeaBlock (Pierce), 1% BSA, 0.05% Tween 20, 1 mM DTT) to remove unbound ligand and to reduce non-specific binding. Binding reactions were assembled by combining kinases, liganded affinity beads, and test compounds in 1× binding buffer (20% SeaBlock, 0.17×PBS, 0.05% Tween 20, 6 mM DTT). Test compounds were prepared as 111× stocks in 100% DMSO. Kds were determined using an 11-point 3-fold compound dilution series with three DMSO control points. All compounds for Kd measurements are distributed by acoustic transfer (non-contact dispensing) in 100% DMSO. The compounds were then diluted directly into the assays such that the final concentration of DMSO was 0.9%. In case of % inhibition, test compounds were prepared as 40× stocks in 100% DMSO and directly diluted into the assay. All reactions performed in polypropylene 384-well plate. Each was a final volume of 0.02 ml. The assay plates were incubated at room temperature with shaking for 1 hour and the affinity beads were washed with wash buffer (1×PBS, 0.05% Tween 20). The beads were then re-suspended in elution buffer (1×PBS, 0.05% Tween 20, 0.5 μM non-biotinylated affinity ligand) and incubated at room temperature with shaking for 30 minutes. The kinase concentration in the eluates was measured by qPCR.
# The CSF1R kinase binding activity results are shown in tables 1 (Kd) and 2 (percent inhibition at a concentration of 0.1 uM of compound to be tested).
# Binding constants (Kds) were calculated with a standard dose-response curve using the Hill equation: […]
# The Hill Slope was set to −1.
# Curves were fitted using a non-linear least square fit with the Levenberg-Marquardt algorithm.
# Binding % inhibition were calculated with as below:
# [formula] • negative control=DMSO (100% Ctrl) • positive control=control compound (0% Ctrl)
# [3] = read-out: CSF1R kinase binding activity, Percent (%) inhibition
# [4] = read-out: CSF1R kinase binding activity, Range
# T1 sequence (P07333 20-972): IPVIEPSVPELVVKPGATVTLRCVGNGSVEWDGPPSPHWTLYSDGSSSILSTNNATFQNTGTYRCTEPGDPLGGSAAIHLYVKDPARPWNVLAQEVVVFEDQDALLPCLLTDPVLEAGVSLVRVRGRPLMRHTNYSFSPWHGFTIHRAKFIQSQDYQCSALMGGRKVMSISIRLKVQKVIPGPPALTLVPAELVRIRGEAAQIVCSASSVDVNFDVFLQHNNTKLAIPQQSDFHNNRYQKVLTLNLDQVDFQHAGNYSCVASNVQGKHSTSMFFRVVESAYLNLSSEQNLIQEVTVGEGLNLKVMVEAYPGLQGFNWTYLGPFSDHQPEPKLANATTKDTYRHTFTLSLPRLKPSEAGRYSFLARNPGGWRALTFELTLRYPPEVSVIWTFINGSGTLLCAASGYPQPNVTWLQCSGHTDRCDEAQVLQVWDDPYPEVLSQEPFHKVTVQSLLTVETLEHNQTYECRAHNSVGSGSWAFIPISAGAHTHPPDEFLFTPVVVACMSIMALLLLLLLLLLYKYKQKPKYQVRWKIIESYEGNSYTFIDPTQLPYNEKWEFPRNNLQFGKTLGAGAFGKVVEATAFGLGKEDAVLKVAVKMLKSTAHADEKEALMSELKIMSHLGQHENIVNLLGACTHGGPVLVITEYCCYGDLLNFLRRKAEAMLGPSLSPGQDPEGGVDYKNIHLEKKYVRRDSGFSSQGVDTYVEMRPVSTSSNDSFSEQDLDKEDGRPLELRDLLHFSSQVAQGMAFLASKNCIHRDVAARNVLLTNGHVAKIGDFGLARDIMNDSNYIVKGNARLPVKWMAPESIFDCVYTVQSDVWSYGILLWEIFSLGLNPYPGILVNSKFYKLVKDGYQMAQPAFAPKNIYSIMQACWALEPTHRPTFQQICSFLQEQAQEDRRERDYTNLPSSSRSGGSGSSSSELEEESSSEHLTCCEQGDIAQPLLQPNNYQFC
IC50 (CSF1R [1]),inhibition at 0.1 µM (CSF1R [2]; [3]),inhibition at 0.1 µM (CSF1R [2]; [4]),Kd (CSF1R [2]),Compound
< 500 nM,97%,≥ 80%,< 100 nM,CCn1cc(OC(C)C)c(C(=O)Nc2ccc(Oc3ccnc4cc(OC)c(OC)cc34)cn2)n1 [Compound 6]
< 500 nM,97%,≥ 80%,< 100 nM,CCCn1cc(OCC(F)(F)F)c(C(=O)Nc2ccc(Oc3ccnc4cc(OC)c(OC)cc34)cn2)n1 [Compound 7]
< 500 nM,94%,≥ 80%,< 100 nM,CCn1cc(OCC2CCC2)c(C(=O)Nc2ccc(Oc3ccnc4cc(OC)c(OC)cc34)cn2)n1 [Compound 8]
< 500 nM,92%,≥ 80%,< 100 nM,COc1cc2nccc(Oc3ccc(NC(=O)c4nn(CCN(C)C)cc4OCC(F)(F)F)nc3)c2cc1OC [Compound 9]
< 500 nM,98%,≥ 80%,< 100 nM,COCCn1cc(OCC(F)(F)F)c(C(=O)Nc2ccc(Oc3ccnc4cc(OC)c(OC)cc34)cn2)n1 [Compound 10]
500 to 1000 nM,88%,≥ 80%,< 100 nM,CNCCn1cc(OCC(F)(F)F)c(C(=O)Nc2ccc(Oc3ccnc4cc(OC)c(OC)cc34)cn2)n1 [Compound 11]
< 500 nM,98%,≥ 80%,< 100 nM,CCCn1cc(OCC(F)F)c(C(=O)Nc2ccc(Oc3ccnc4cc(OC)c(OC)cc34)cn2)n1 [Compound 12]
< 500 nM,99%,≥ 80%,–,COc1cc2nccc(Oc3ccc(NC(=O)c4n[nH]cc4OCC(F)(F)F)nc3)c2cc1OC [Compound 16]
< 500 nM,100%,≥ 80%,–,COc1cc2nccc(Oc3ccc(NC(=O)c4nn(CC5COC5)cc4OCC(F)(F)F)nc3)c2cc1OC [Compound 92]
≥ 1000 nM,57%,50 to 80%,–,COc1cc2nccc(Oc3ccc(NC(=O)c4nn(C5CCN(C)C5)cc4OCC(F)(F)F)cc3F)c2cc1OC (centres unmarked) [Compound 96]
≥ 1000 nM,56%,50 to 80%,–,COc1cc2nccc(Oc3ccc(NC(=O)c4nn(CC5COC5)cc4OCC(F)(F)F)cc3F)c2cc1OC [Compound 97]
≥ 1000 nM,60%,50 to 80%,–,COc1cc2nccc(Oc3ccc(NC(=O)c4nn(C5CCN(C)C5)cc4OCC(F)(F)F)cc3C)c2cc1OC (centres unmarked) [Compound 98]
500 to 1000 nM,94%,≥ 80%,–,COc1cc2nccc(Oc3ccc(NC(=O)c4nn(CC5COC5)cc4OCC(F)(F)F)cc3C)c2cc1OC [Compound 99]
≥ 1000 nM,36%,< 50%,–,COc1cc2nccc(Oc3ccc(NC(=O)c4nn(C5CCN(C)C5)cc4OCC(F)(F)F)cc3)c2cc1OC (centres unmarked) [Compound 100]
≥ 1000 nM,45%,< 50%,–,COc1cc2nccc(Oc3ccc(NC(=O)c4nn(CC5COC5)cc4OCC(F)(F)F)cc3)c2cc1OC [Compound 101]
< 500 nM,87%,≥ 80%,–,COc1cc2nccc(Oc3ccc(NC(=O)c4nn(C)cc4OCC(F)(F)F)nn3)c2cc1OC [Compound 102]
≥ 1000 nM,29%,< 50%,–,COc1cc2nccc(Oc3ccc(NC(=O)c4nn(CC(C)C)cc4OCC(F)(F)F)cn3)c2cc1OC [Compound 103]
≥ 1000 nM,46%,< 50%,–,COCCn1cc(OCC(F)(F)F)c(C(=O)Nc2ccc(Oc3ccnc4cc(OC)c(OC)cc34)nc2)n1 [Compound 104]
< 500 nM,91%,≥ 80%,–,CCCn1cc(OCCOC)c(C(=O)Nc2ccc(Oc3ccnc4cc(OC)c(OC)cc34)cn2)n1 [Compound 105]
< 500 nM,95%,≥ 80%,–,CCCn1cc(OCC2COC2)c(C(=O)Nc2ccc(Oc3ccnc4cc(OC)c(OC)cc34)cn2)n1 [Compound 106]
< 500 nM,90%,≥ 80%,–,COCCOc1cn(C2CC2)nc1C(=O)Nc1ccc(Oc2ccnc3cc(OC)c(OC)cc23)cn1 [Compound 107]
< 500 nM,96%,≥ 80%,–,COc1cc2nccc(Oc3ccc(NC(=O)c4nn(C5CC5)cc4OC(C)C)nc3)c2cc1OC [Compound 108]
< 500 nM,98%,≥ 80%,–,COc1cc2nccc(Oc3ccc(NC(=O)c4nn(C5CC5)cc4OCC(F)F)nc3)c2cc1OC [Compound 109]
< 500 nM,98%,≥ 80%,–,COc1cc2nccc(Oc3ccc(NC(=O)c4nn(C5CC5)cc4OCCF)nc3)c2cc1OC [Compound 110]
500 to 1000 nM,89%,≥ 80%,–,COc1cc2nccc(Oc3ccc(NC(=O)c4nn(C5CC5)cc4OCC4CCC4)nc3)c2cc1OC [Compound 111]

Compound,IC50 (CSF1R [1]),inhibition at 0.1 µM (CSF1R [2]; [3]),inhibition at 0.1 µM (CSF1R [2]; [4]),Kd (CSF1R [2])
CCn1cc(OCC(F)(F)F)c(C(=O)Nc2ccc(Oc3ccnc4cc(OC)c(OC)cc34)cn2)n1 [Compound 4],< 500 nM,98%,≥ 80%,< 100 nM
